Results: patent US20150038589A1, “Nutritional Product Comprising a Biguanide” (priority 2011, published 2015)

Tests used:
[1] = cited from earlier work
[2] = Stability test of metformin in yoghurt (pH and metformin content); assay type: physicochemical
Description: Yoghurt is prepared as described in Example 3. A batch comprising no metformin (placebo), a batch comprising 200 mg metformin per 100 gram (low dosage) and a batch comprising 360 mg metformin (high dosage) were made.
Part of the batches were stored in a fridge (about 4° C.), other parts at room temperature (about 20° C.). Product stability was determined by measuring pH and the metformin content (measured amount as a percentage of the added amount), weekly for a period of 35 days. […] Stability at room temperature was determined for only 35 days. Tables 6 and 7 show the measured amount of metformin in both products comprising metformin (relative to calculated amount=100%). No metformin was measured in the placebo.

[3] = Cookie comprising metformin consumed by human volunteers; blood samples; assay type: in vivo; conditions: one cookie (250 mg metformin); for concentration at 1 h / concentration at 2 h / concentration at 4 h / concentration at 0 h: human, blood, oral, 250 mg, empty stomach; for concentration at 1 h: 1 hr after consumption; for concentration at 2 h: 2 hrs after consumption; for concentration at 4 h: 4 hrs after consumption; for concentration at 0 h: before consumption
Description: A cookie dough was prepared comprising 1000 mg fine-ground metformin per 100 g conventional cookie dough, by mixing fine-ground metformin into the dough. 40 droplets of lemon juice per 100 g dough were added to the dough comprising the metformin, in order to neutralise the bitter taste of the metformin. Thereafter, the dough was divided in pieces of 25 g, from which pieces cookies were baked in a conventional way.
Human volunteers each consumed one cookie (providing 250 mg metformin) on an empty stomach. Blood samples were taken before consumption, 1 hour after consumption, 2 hours after consumption and 4 hours after consumption.

[4] = Clinical test: double-blind trial of yoghurt drink with added metformin, 6 weeks; conditions: for Hyperinsulinaemia Internationale Unit / fasting glucose: change after 42 days
[5] = up to 4 hours after consumption
[6] = Trial group I (n = 6), 250 mg metformin/day in yoghurt, after 42 days
[7] = Trial group I (n = 6), 250 mg metformin/day in yoghurt
[8] = Trial group II (n = 4), 450 mg metformin/day in yoghurt, after 42 days
[9] = Trial group II (n = 4), 450 mg metformin/day in yoghurt
[10] = subjects with the product of the invention, after 42 days

## CN(C)C(=N)NC(=N)N [metformin, N,N-dimethylimidodicarbonimidic diamide]
[1]; conventional dosage form such as a tablet
  subjects with a reduction in B12 levels in blood: about 30%
[1]; conventional pharmaceutical composition comprising biguanide (metformin)
  subjects suffering from stomach complaints and diarrhoea: roughly 30%
[2]; 28 days (room temperature) or 35 days (refrigerator temperature)
  degradation of metformin in a fermented (acidic) product: no substantial degradation
[2]; metformin included in a nutritional product
  storage stability in a nutritional product: at least 5 weeks
[3]; subject 1
  concentration at 1 h: < 500 ng/mL
  concentration at 2 h: 700 ng/mL
  concentration at 4 h: 800 ng/mL
  concentration at 0 h: < 500 ng/mL
[3]; subject 2
  concentration at 1 h: < 500 ng/mL
  concentration at 2 h: < 500 ng/mL
  concentration at 4 h: 600 ng/mL
  concentration at 0 h: < 500 ng/mL
[3]; during the experiment
  negative side-effects: no negative side-effects were observed
[3]; [5]
  glucose levels in blood samples: no significant changes
  lipid levels in blood samples: no significant changes
[4]; [6]
  insulin resistance improvement (HOMA-2): −0.13
  side-effects: abdominal pain (number of subjects): 0
  side-effects: diarrhoea (number of subjects): 0
  side-effects: fatigue (number of subjects): 0
  side-effects: reflux (number of subjects): 0
  side-effects: stomach pain (number of subjects): 1
  side-effects: vertigo (number of subjects): 0
  Δ waist size: −2.0 cm
  Δ weight: -1.9 kg
[4]; [7]
  Hyperinsulinaemia Internationale Unit: −1.4 Internationale Unit
  fasting glucose: -0.12 mmol/L
[4]; [8]
  insulin resistance improvement (HOMA-2): −3.9
  side-effects: abdominal pain (number of subjects): 0
  side-effects: diarrhoea (number of subjects): 0
  side-effects: fatigue (number of subjects): 0
  side-effects: reflux (number of subjects): 0
  side-effects: stomach pain (number of subjects): 0
  side-effects: vertigo (number of subjects): 0
  Δ waist size: −3.1 cm
  Δ weight: -1.9 kg
[4]; [9]
  Hyperinsulinaemia Internationale Unit: −3.9 Internationale Unit
  fasting glucose: -0.68 mmol/L
[4]; both, human, blood, oral
  concentration at 24 h: < 250 ng/mL
[4]; out of 10 subjects in the trial group (1 in the placebo group)
  subjects indicating a reduced appetite: 4
[4]; [10]
  reduction in waist size compared to the placebo: 2-3 fold
  weight loss compared to the placebo: 3 fold
[4]; trial group I, after 42 days
  blood HDL concentration change: No change
  decrease in pulse: −6
[4]; trial group II (450 mg metformin per day), after 42 days
  blood HDL concentration change: +0.12
[4]; trial group II, after 42 days
  decrease in pulse: −2
